Values after ≈ are worked out from the molar mass of the structure shown. Blank lines part the entries; values can stand above or below the compound they belong to.
What was measured:
Assay in all cases: ≥ marks a high value that may be exact or a test limit, other limits are often not marked, values filed in µg/mL are converted to µM
[1] = tested on: Escherichia coli ATCC 11219
[2] = tested on: Klebsiella pneumoniae ATCC 10031
[3] = tested on: Pseudomonas aeruginosa ATCC 13388
[4] = tested on: Salmonella enterica subsp. enterica serovar Typhimurium ATCC 14028
[5] = tested on: Staphylococcus aureus ATCC 6538
[6] = tested on: Acinetobacter baumannii KCTC 2508
Acinetobacter baumannii = tested on: Acinetobacter baumannii
[7] = tested on: Bacillus subtilis KCTC 1918
[8] = tested on: Candida albicans TIMM 1768
[9] = tested on: Proteus vulgaris KCTC 2433
[10] = tested on: Saccharomyces cerevisiae KCTC 7296
[11] = tested on: Salmonella typhimurium KCTC 1926
[12] = tested on: Staphylococcus aureus KCTC 1621
[13] = tested on: Trichosporon beigelii KCTC 7707
[14] = tested on: Bacillus subtilis ATCC 6633
[15] = tested on: Escherichia coli ATCC 10536
[16] = tested on: Escherichia coli DH5alpha
[17] = tested on: Staphylococcus aureus ATCC 9144
[18] = tested on: Bacillus subtilis IFO 3513
[19] = tested on: Escherichia coli IFO 12734
[20] = tested on: Staphylococcus aureus IFO 12732

- MIC [1]: ≥ 50 µM
- MIC [2]: ≥ 50 µM
- MIC [3]: 10 µM (≈ 13.4 µg/mL)
- MIC [4]: 3 µM (≈ 4.02 µg/mL)
- MIC [5]: 10 µM (≈ 13.4 µg/mL)
SMILES: CC[C@H](C)[C@H](NC(=O)[C@H](C)N)C(=O)N[C@@H](Cc1cnc[nH]1)C(=O)N[C@@H](CC(=O)O)C(=O)N[C@H](C(=O)N[C@@H](CC(C)C)C(=O)N[C@@H](CCCCN)C(=O)N[C@@H](Cc1ccc(O)cc1)C(=O)NCC(=O)N[C@@H](CCCCN)C(=O)N1CCC[C@H]1C(=O)N[C@@H](CO)C(N)=O)[C@@H](C)CC [AIHDILKYGKPS]

- MIC [1]: 4 µM (≈ 5.77 µg/mL)
- MIC [2]: 10 µM (≈ 14.4 µg/mL)
- MIC [3]: 10 µM (≈ 14.4 µg/mL)
- MIC [4]: 10 µM (≈ 14.4 µg/mL)
- MIC [5]: 5 µM (≈ 7.21 µg/mL)
SMILES: CC[C@H](C)[C@H](NC(=O)CN)C(=O)N[C@@H](CCCN=C(N)N)C(=O)N[C@@H](CCCN=C(N)N)C(=O)N[C@H](C(=O)N[C@@H](CC(C)C)C(=O)N[C@@H](CCCN=C(N)N)C(=O)N[C@@H](Cc1ccc(O)cc1)C(=O)NCC(=O)N[C@@H](CCCN=C(N)N)C(=O)N1CCC[C@H]1C(=O)N[C@@H](CO)C(N)=O)[C@@H](C)CC [GIRRILRYGRPS]

- MIC [18]: 1.78 µM (≈ 3.13 µg/mL)
- MIC [19]: 28.4 µM (≈ 50 µg/mL)
- MIC [20]: 1.78 µM (≈ 3.13 µg/mL)
SMILES: CC[C@H](C)[C@H](N)C(=O)N[C@@H](CC(C)C)C(=O)N1CCC[C@H]1C(=O)N[C@@H](CC(C)C)C(=O)N[C@@H](CCCCN)C(=O)N[C@@H](CC(C)C)C(=O)N1CCC[C@H]1C(=O)N[C@@H](Cc1c[nH]c2ccccc12)C(=O)N[C@@H](Cc1c[nH]c2ccccc12)C(=O)N1CCC[C@H]1C(=O)N[C@@H](Cc1c[nH]c2ccccc12)C(=O)N[C@@H](CCCN=C(N)N)C(=O)N[C@@H](CCCN=C(N)N)C(N)=O [ILPLKLPWWPWRR]

- MIC [18]: 1.76 µM (≈ 3.13 µg/mL)
- MIC [19]: 28.1 µM (≈ 50 µg/mL)
- MIC [20]: 1.76 µM (≈ 3.13 µg/mL)
SMILES: CC[C@H](C)[C@H](N)C(=O)N[C@@H](CC(C)C)C(=O)N1CCC[C@H]1C(=O)N[C@@H](Cc1c[nH]c2ccccc12)C(=O)N[C@@H](CCCCN)C(=O)N[C@@H](Cc1c[nH]c2ccccc12)C(=O)N1CCC[C@H]1C(=O)N[C@@H](Cc1c[nH]c2ccccc12)C(=O)N[C@@H](CC(C)C)C(=O)N1CCC[C@H]1C(=O)N[C@@H](Cc1c[nH]c2ccccc12)C(=O)N[C@@H](CCCCN)C(=O)N[C@@H](CCCCN)C(N)=O [ILPWKWPWLPWKK]

- MIC [18]: 1.73 µM (≈ 3.13 µg/mL)
- MIC [19]: 13.8 µM (≈ 25 µg/mL)
- MIC [20]: 3.45 µM (≈ 6.25 µg/mL)
SMILES: CC[C@H](C)[C@H](N)C(=O)N[C@@H](CC(C)C)C(=O)N1CCC[C@H]1C(=O)N[C@@H](Cc1c[nH]c2ccccc12)C(=O)N[C@@H](CCCCN)C(=O)N[C@@H](Cc1c[nH]c2ccccc12)C(=O)N1CCC[C@H]1C(=O)N[C@@H](Cc1ccc(O)cc1)C(=O)N[C@@H](CC(C)C)C(=O)N1CCC[C@H]1C(=O)N[C@@H](Cc1c[nH]c2ccccc12)C(=O)N[C@@H](CCCN=C(N)N)C(=O)N[C@@H](CCCN=C(N)N)C(N)=O [ILPWKWPYLPWRR]

- MIC [8]: 14.1 µM (≈ 42.5 µg/mL)
- MIC [10]: 14.1 µM (≈ 42.5 µg/mL)
- MIC [13]: 14.1 µM (≈ 42.5 µg/mL)
SMILES: CC[C@H](C)[C@H](NC(=O)[C@@H](NC(=O)[C@@H](N)CCCNC(=N)N)[C@@H](C)CC)C(=O)N[C@@H](CC(=O)O)C(=O)N[C@@H](CC(C)C)C(=O)N[C@@H](CC(C)C)C(=O)N[C@@H](Cc1c[nH]c2ccccc12)C(=O)N[C@@H](CCCNC(=N)N)C(=O)N[C@H](C(=O)N[C@@H](CCCNC(=N)N)C(=O)N[C@@H](CCCNC(=N)N)C(=O)N1CCC[C@H]1C(=O)N[C@@H](CCC(N)=O)C(=O)N[C@@H](Cc1c[nH]c2ccccc12)C(=O)N1CCC[C@H]1C(=O)N[C@@H](CCCCN)C(=O)N[C@@H](Cc1ccccc1)C(=O)N[C@H](C(=O)N[C@H](C(=O)N[C@H](C(=O)N[C@@H](Cc1c[nH]c2ccccc12)C(=O)N[C@H](C(=O)N[C@H](C=O)CCCNC(=N)N)C(C)C)C(C)C)[C@@H](C)O)C(C)C)C(C)C [RIIDLLWRVRRPQWPKFVTVWVR]

Continued, compound first:

SMILES: CC[C@H](C)[C@H](NC(=O)CNC(=O)[C@H](CC(C)C)NC(=O)[C@H](CCCN=C(N)N)NC(=O)[C@H](CCCCN)NC(=O)[C@H](Cc1ccccc1)NC(=O)[C@@H](NC(=O)[C@H](CCCCN)NC(=O)[C@H](CCCCN)NC(=O)[C@H](C)N)C(C)C)C(=O)NCC(=O)N[C@@H](C)C(=O)N[C@H](C(=O)N[C@@H](CC(C)C)C(=O)N[C@@H](CCCCN)C(=O)N[C@H](C(=O)N[C@@H](CC(C)C)C(=O)N[C@H](C(=O)N[C@H](C(=O)NCC(=O)O)[C@@H](C)O)[C@@H](C)O)C(C)C)C(C)C [AKKVFKRLGIGAVLKVLTTG]
- MIC [6]: 6.25 µM (≈ 13.1 µg/mL)
- MIC (Acinetobacter baumannii): 6.25 µM (≈ 13.1 µg/mL)
- MIC [7]: 0.78 µM (≈ 1.64 µg/mL)
- MIC [8]: 12.5 µM (≈ 26.2 µg/mL)
- MIC [9]: 6.25 µM (≈ 13.1 µg/mL)
- MIC [10]: 12.5 µM (≈ 26.2 µg/mL)
- MIC [11]: 0.39 µM (≈ 0.819 µg/mL)
- MIC [12]: 1.56 µM (≈ 3.28 µg/mL)
- MIC [13]: 17.7 µM (≈ 37.1 µg/mL)

SMILES: CC[C@H](C)[C@H](NC(=O)CNC(=O)[C@H](CC(C)C)NC(=O)[C@H](CCCN=C(N)N)NC(=O)[C@H](CCCCN)NC(=O)[C@H](Cc1ccccc1)NC(=O)[C@@H](NC(=O)[C@H](CCCCN)NC(=O)[C@H](CCCCN)NC(=O)[C@H](C)N)C(C)C)C(=O)NCC(=O)N[C@@H](C)C(=O)N[C@H](C(=O)N[C@@H](CC(C)C)C(=O)N[C@@H](Cc1c[nH]c2ccccc12)C(=O)N[C@H](C(=O)N[C@@H](CC(C)C)C(=O)N[C@H](C(=O)N[C@@H](Cc1c[nH]c2ccccc12)C(=O)NCC(=O)O)[C@@H](C)O)C(C)C)C(C)C [AKKVFKRLGIGAVLWVLTWG]
- MIC [7]: 6.25 µM (≈ 14 µg/mL)
- MIC [8]: ≥ 50 µM
- MIC [9]: 3.12 µM (≈ 7 µg/mL)
- MIC [10]: ≥ 50 µM
- MIC [11]: 0.78 µM (≈ 1.75 µg/mL)
- MIC [12]: 3.12 µM (≈ 7 µg/mL)
- MIC [13]: ≥ 50 µM

SMILES: CC[C@H](C)[C@H](NC(=O)[C@H](CCCN=C(N)N)NC(=O)[C@@H](NC(=O)[C@@H](NC(=O)[C@@H]1CCCN1C(=O)[C@@H](NC(=O)[C@@H](NC(=O)[C@H](C)NC(=O)[C@@H]1CCCN1C(=O)CNC(=O)[C@H](Cc1ccc(O)cc1)NC(=O)[C@H](CCCCN)NC(=O)[C@H](CCCCN)NC(=O)[C@H](Cc1c[nH]c2ccccc12)NC(=O)[C@H](C)NC(=O)[C@H](CCCN=C(N)N)NC(=O)[C@H](CC(C)C)NC(=O)[C@H](C)NC(=O)[C@H](CCCCN)NC(=O)[C@H](CCCN=C(N)N)NC(=O)CNC(=O)[C@H](CC(C)C)NC(=O)[C@H](CO)NC(=O)[C@H](CCCN=C(N)N)NC(=O)[C@H](C)NC(=O)CNC(=O)CN)[C@@H](C)CC)C(C)C)[C@@H](C)CC)[C@@H](C)CC)C(N)=O [GGARSLGRKALRAWKKYGPAIVPIIRI]
- MIC [14]: 1.7 µM (≈ 5.01 µg/mL)
- MIC [15]: 2.6 µM (≈ 7.66 µg/mL)
- MIC [16]: 2.6 µM (≈ 7.66 µg/mL)
- MIC [17]: 3.9 µM (≈ 11.5 µg/mL)

SMILES: CC[C@H](C)[C@H](NC(=O)[C@H](CCCN=C(N)N)NC(=O)[C@@H](NC(=O)[C@@H](NC(=O)[C@@H]1CCCN1C(=O)[C@@H](NC(=O)[C@@H](NC(=O)[C@@H](NC(=O)[C@@H]1CCCN1C(=O)CNC(=O)[C@H](Cc1ccc(O)cc1)NC(=O)[C@H](CCCCN)NC(=O)[C@H](CCCCN)NC(=O)[C@H](Cc1c[nH]c2ccccc12)NC(=O)[C@H](C)NC(=O)[C@H](CCCN=C(N)N)NC(=O)[C@H](CC(C)C)NC(=O)[C@H](C)NC(=O)[C@H](CCCCN)NC(=O)[C@H](CCCN=C(N)N)NC(=O)CNC(=O)[C@H](CC(C)C)NC(=O)[C@H](CO)NC(=O)[C@H](CCCN=C(N)N)NC(=O)[C@H](C)NC(=O)CNC(=O)CN)[C@@H](C)CC)[C@@H](C)CC)C(C)C)[C@@H](C)CC)[C@@H](C)CC)C(N)=O [GGARSLGRKALRAWKKYGPIIVPIIRI]
- MIC [14]: 1.5 µM (≈ 4.48 µg/mL)
- MIC [15]: 2.5 µM (≈ 7.47 µg/mL)
- MIC [16]: 2.7 µM (≈ 8.07 µg/mL)
- MIC [17]: 3.8 µM (≈ 11.4 µg/mL)

SMILES: CC[C@H](C)[C@H](NC(=O)CN)C(=O)N[C@@H](Cc1cnc[nH]1)C(=O)N[C@@H](CC(=O)O)C(=O)N[C@H](C(=O)N[C@@H](CC(C)C)C(=O)N[C@@H](CCCCN)C(=O)N[C@@H](C)C(=O)NCC(=O)N[C@@H](CCCCN)C(=O)N1CCC[C@H]1C(=O)N[C@@H](CO)C(N)=O)[C@@H](C)CC [GIHDILKAGKPS]
- MIC [1]: 20 µM (≈ 24.7 µg/mL)
- MIC [2]: 20 µM (≈ 24.7 µg/mL)
- MIC [3]: ≥ 50 µM
- MIC [4]: > 50 µM
- MIC [5]: 10 µM (≈ 12.3 µg/mL)

From DBAASP
